Measured values as given in the NIST ThermoML archive (doi:10.1016/j.jct.2014.12.002).

Assays:
[1] = molar heat capacity at constant pressure; conditions: 100 kPa, Small sample (50 mg) DSC
[2] = Molar enthalpy of transition or fusion; conditions: Crystal; DSC
[3] = Crystal

N#Cc1ccccc1-c1ccc(CBr)cc1 [4'-(bromomethyl)-2-cyanobiphenyl]
[1]
Conditions	molar heat capacity at constant pressure [J/K/mol]
293.15 K, Crystal	253.23
297.15 K, Crystal	256.2
301.15 K, Crystal	259.07
305.15 K, Crystal	261.5
309.15 K, Crystal	265.03
313.15 K, Crystal	268.1
317.15 K, Crystal	271.41
321.15 K, Crystal	274.74
325.15 K, Crystal	277.96
329.15 K, Crystal	281.51
333.15 K, Crystal	284.37
337.15 K, Crystal	287.74
341.15 K, Crystal	291.32
345.15 K, Crystal	294.58
349.15 K, Crystal	298.15
353.15 K, Crystal	300.62
357.15 K, Crystal	303.82
361.15 K, Crystal	306.86
365.15 K, Crystal	309.09
369.15 K, Crystal	314.38
373.15 K, Crystal	317.58
433.15 K, Liquid	408.2
437.15 K, Liquid	410.68
441.15 K, Liquid	413.2
445.15 K, Liquid	415.66
449.15 K, Liquid	417.96
453.15 K, Liquid	420.63
457.15 K, Liquid	423.5
461.15 K, Liquid	425.47
465.15 K, Liquid	427.72
469.15 K, Liquid	429.91
473.15 K, Liquid	432.48
477.15 K, Liquid	434.9
481.15 K, Liquid	437.62
485.15 K, Liquid	440.31
489.15 K, Liquid	441.88
493.15 K, Liquid	444.14

Conditions	Molar enthalpy of transition or fusion [kcal/mol]
[2]	7.05

Conditions	molar volume [m3/mol]
[3], 293.15 K, 101.33 kPa, Pycnometric method	0.000223

Conditions	Normal melting temperature [°C]
[3], DTA	126.06
